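Values below derive from 48-hour exposures of cells grown in 96-well plates, with endpoints linearly interpolated between the two concentrations bracketing the appropriate inhibition level. The concentration for full growth arrest is given as TGI.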
How the values were obtained:
Assay in all cases: inhibition of tumour cell growth, NCI panel, 48 h
SF-539 CNS = system: SF-539 CNS
RXF 393 renal = system: RXF 393 renal
SW-620 colon = system: SW-620 colon
SK-MEL-2 melanoma = system: SK-MEL-2 melanoma
LOX IMVI melanoma = system: LOX IMVI melanoma
A498 renal = system: A498 renal
ACHN renal = system: ACHN renal
CCRF-CEM leukemia = system: CCRF-CEM leukemia
OVCAR-8 ovarian = system: OVCAR-8 ovarian
NCI-H226 lung = system: NCI-H226 lung
RPMI-8226 leukemia = system: RPMI-8226 leukemia
MDA-MB-231 breast = system: MDA-MB-231 breast
SR leukemia = system: SR leukemia
HCT-15 colon = system: HCT-15 colon
OVCAR-4 ovarian = system: OVCAR-4 ovarian
MDA-MB-435 = system: MDA-MB-435
MCF7 breast = system: MCF7 breast

| Compound | TGI (SF-539 CNS) [µM] | TGI (RXF 393 renal) [µM] | TGI (SW-620 colon) [µM] | TGI (SK-MEL-2 melanoma) [µM] | TGI (LOX IMVI melanoma) [µM] | TGI (A498 renal) [µM] | TGI (ACHN renal) [µM] | TGI (CCRF-CEM leukemia) [µM] | TGI (OVCAR-8 ovarian) [µM] | TGI (NCI-H226 lung) [µM] | TGI (RPMI-8226 leukemia) [µM] | TGI (MDA-MB-231 breast) [µM] | TGI (SR leukemia) [µM] | TGI (HCT-15 colon) [µM] | TGI (OVCAR-4 ovarian) [µM] | TGI (MDA-MB-435) [µM] | TGI (MCF7 breast) [µM] |
| --- | --- | --- | --- | --- | --- | --- | --- | --- | --- | --- | --- | --- | --- | --- | --- | --- | --- |
| O=C1/C(=C/c2ccccc2Cl)COc2ccc(Br)cc21 | > 100 | > 100 | > 100 | > 100 | > 100 | > 100 | > 100 | > 100 | > 100 | – | – | – | – | – | – | – | – |
| CC(C)C1=Cc2ccc3c(c2C(=O)C1=O)CCCC3 | 16.9 | 7.82 | 14 | 18.8 | 25.6 | 18.5 | 7.13 | – | 13.4 | 36.1 | 6.6 | 34.1 | 2.77 | 9.03 | 3.16 | 21.4 | – |
| CCCCCCCCCCCCCCCCc1c(C(=O)OC)nc(NC#N)[nH]c1=O | > 25 | > 25 | > 25 | > 25 | > 25 | > 25 | > 25 | > 25 | > 25 | > 25 | > 25 | – | – | > 25 | > 25 | – | – |
| CCOC(=O)C(C)NC(=O)NC12CC3CC(CC(F)(C3)C1)C2 (centres undefined) | > 100 | 86.6 | > 100 | > 100 | > 100 | > 100 | > 100 | > 100 | > 100 | – | > 100 | – | – | – | – | – | – |
| O=S1Nc2cccc(C(F)(F)F)c2S1 (centres undefined) | > 100 | 73.7 | 23.8 | 88.6 | 74.1 | 97.3 | > 100 | 29.3 | > 100 | > 100 | > 100 | – | > 100 | 43 | > 100 | – | – |
| CC1OC(n2cc(F)c(=O)[nH]c2=O)CCC1=O (centres undefined) | 88.7 | > 100 | > 100 | > 100 | > 100 | > 100 | > 100 | > 100 | > 100 | > 100 | > 100 | – | > 100 | > 100 | > 100 | – | – |
| CCOC(=O)c1c(NC(=S)Nc2ccccc2)sc2c1CCN(C)C2 | > 100 | > 100 | – | > 100 | – | > 100 | > 100 | > 100 | > 100 | > 100 | > 100 | > 100 | – | > 100 | – | – | > 100 |
| CC1(C)CN(CC(=O)O)CC(Cc2ccc(OCC(=O)O)cc2)N(CC(=O)O)CC(C)(C)SS1 (centres undefined) | > 100 | > 100 | > 100 | > 100 | > 100 | > 100 | > 100 | – | > 100 | > 100 | > 100 | > 100 | – | > 100 | > 100 | > 100 | > 100 |
| CCOc1ccc(N(CC(=O)N2CC(=O)Nc3cc(C)c(C)cc32)C(C)=O)cc1 | > 100 | > 100 | > 100 | > 100 | > 100 | – | > 100 | > 100 | > 100 | > 100 | > 100 | – | > 100 | > 100 | > 100 | – | – |
| CC(=O)OCC12CC(CC1OC(C)=O)c1ccccc12 (centres undefined) | – | – | > 100 | – | > 100 | > 100 | > 100 | > 100 | > 100 | > 100 | > 100 | – | > 100 | > 100 | > 100 | – | – |
| CC(C)N(C(=O)C12C3C4C5C3C1(C(=O)O)C5C42)C(C)C (centres undefined) | > 100 | – | > 100 | > 100 | > 100 | > 100 | > 100 | > 100 | > 100 | – | > 100 | – | – | > 100 | > 100 | – | – |
| O=C1CCC2(c3ccc(Cl)cc3)Nc3ccccc3N12 (centres undefined) | > 100 | > 100 | > 100 | > 100 | > 100 | > 100 | > 100 | – | > 100 | > 100 | > 100 | – | > 100 | > 100 | > 100 | – | – |
| Nc1nc(Cl)c(N)c(NCC2(CO)CCC(OCc3ccccc3)C2)n1 (centres undefined) | > 100 | > 100 | > 100 | > 100 | > 100 | 81.5 | > 100 | > 100 | > 100 | > 100 | – | > 100 | – | > 100 | > 100 | > 100 | > 100 |
| Cc1[nH]c2ncn3[nH]c(=S)nc3c2c1Cc1ccccc1 | > 100 | > 100 | > 100 | > 100 | – | > 100 | > 100 | > 100 | > 100 | > 100 | – | > 100 | – | > 100 | > 100 | > 100 | > 100 |
| CC(=O)NC1=NC(=O)/C(=C/c2ccccc2Cl)N1C | > 100 | > 100 | > 100 | > 100 | > 100 | – | > 100 | > 100 | > 100 | > 100 | – | > 100 | – | > 100 | > 100 | > 100 | > 100 |
| O=C(O)c1cnc2c(ccc3[nH]cccc32)c1=O | > 100 | > 100 | > 100 | > 100 | > 100 | > 100 | > 100 | > 100 | > 100 | – | – | – | > 100 | > 100 | > 100 | – | – |
| CC1(O)CC2C(CC1SC1CC3C(CC1(C)O)C3(C)C)C2(C)C (centres undefined) | > 100 | – | – | > 100 | – | – | > 100 | 95.9 | > 100 | > 100 | > 100 | – | – | > 100 | 94.1 | – | – |
